From ChEMBL document CHEMBL1139522, “Methyl pyropheophorbide-a analogues: potential fluorescent probes for the peripheral-type benzodiazepine receptor. Effect of central metal in photosensitizing efficacy” (J Med Chem, 2005)

Columns and labels:
[1] = Displacement of [3H]PK11195 from peripheral benzodiazepine receptor
Mus musculus [2] = species: Mus musculus; experiment: In vitro photodynamic therapy efficacy (0.06 uM) in RIF tumor cells using MTT assay; expressed as light dose; type: functional
Mus musculus [3] = species: Mus musculus; experiment: In vitro photodynamic therapy efficacy (1.0 uM) in RIF tumor cells using MTT assay; expressed as light dose; type: functional

| Structure (SMILES) | IC50 [1] [nM] | LD50 (Mus musculus [2]) [J/cm2] | LD50 (Mus musculus [3]) |
| --- | --- | --- | --- |
| CCCCCCOC(C)C1=C(C)c2cc3nc(c4c5[nH]c(cc6[nH]c(cc1n2)c(C)c6CC)c(C)c5C(=O)C4)[C@@H](CCC(=O)OC)[C@@H]3C (stereo partly drawn) | 17000 | 0.43 |  |
| O=C(Cc1c[nH]c2ccccc12)NCCCCCCNc1ccc([N+](=O)[O-])c2nonc12 | 320 |  |  |
| C=Cc1c(C)c2[n]3c1=CC1=[N+]4C(=Cc5c(C)c6c7[n]5[Zn-2]34[N+]3=C(C=2)[C@@H](C)[C@H](CCC(=O)OC)C3=C7CC6=O)C(CC)=C1C (stereo partly drawn) | 2890 | >2 | 0.7 J/cm2 |
| C=Cc1c(C)c2cc3nc(c4c5nc(cc6[nH]c(cc1[nH]2)c(C)c6CC)C(C)=C5C(=O)C4)[C@@H](CCC(=O)OC)[C@@H]3C | 1820 | >2 | Toxic |
| CCC(C)N(C)C(=O)c1cc2ccccc2c(-c2ccccc2Cl)n1 (stereo not drawn) [PK-11195] | 390 |  |  |
| C=Cc1c(C)c2cc3nc(c4c5nc(cc6[nH]c(cc1[nH]2)c(C)c6CC)C(C)=C5C(=O)C4)[C@@H](CCC(=O)NCCCCCCNc1ccc([N+](=O)[O-])c2nonc12)[C@@H]3C | 37200 | >2 | >2 J/cm2 |
